Results as given in patent publication US20260297042A1, “BIARYLAMIDE DERIVATIVES AND THEIR USE AS PKMYT1 INHIBITORS” (CANCER RESEARCH TECHNOLOGY LIMITED, priority 2023, published 2026).

How the values were obtained:
[1] = target: T1, Human PKMYT1 (Homo sapiens, UniProt Q99640); assay: PKMYT1 biochemical ADP-Glo enzymatic assay; details: ADP-Glo; 15 nM PKMYT1 kinase domain, 500 µM ATP, 60 minutes at 26° C.; banded
T1 construct: Human PKMYT1 75-362 was cloned as a TEV cleavable 6xHis fusion; 6xHis (TEV cleavable) (cleaved yes); made in house; host or cells: bacterial cells
T1 sequence (Q99640 75-362): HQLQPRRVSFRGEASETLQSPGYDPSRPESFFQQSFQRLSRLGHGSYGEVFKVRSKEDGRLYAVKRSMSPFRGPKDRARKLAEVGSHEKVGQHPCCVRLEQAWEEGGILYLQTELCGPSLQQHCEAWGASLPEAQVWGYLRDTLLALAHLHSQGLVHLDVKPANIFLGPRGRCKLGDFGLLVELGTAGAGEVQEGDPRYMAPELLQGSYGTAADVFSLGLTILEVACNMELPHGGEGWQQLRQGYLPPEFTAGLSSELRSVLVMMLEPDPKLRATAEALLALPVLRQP
In short: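 Measures inhibition of PKMYT1 autonomous ATP hydrolysis: bacterially expressed human enzyme (75-362, tag cleaved) at 15 nM with 500 µM ATP for 60 min at 26 °C, then ADP-Glo Max detection. IC50s accepted only when replicates agreed within 3-fold and curve r2 exceeded 0.9.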

[2] = target: T2, WEE1 (Homo sapiens, UniProt P30291); assay: Selectivity versus WEE1 assay (ADP-Glo enzymatic assay); format: biochemical; details: banded; for IC50: ADP-Glo, 15 nM WEE1, 60 minutes at 26° C.; for PKMYT1 vs. WEE1 selectivity: fold difference in selectivity for PKMYT1 over WEE1, ">N" = at least in this band but could be higher
T2 construct: purchased Thermo Fisher PR7373A
T2 sequence (P30291 whole entry): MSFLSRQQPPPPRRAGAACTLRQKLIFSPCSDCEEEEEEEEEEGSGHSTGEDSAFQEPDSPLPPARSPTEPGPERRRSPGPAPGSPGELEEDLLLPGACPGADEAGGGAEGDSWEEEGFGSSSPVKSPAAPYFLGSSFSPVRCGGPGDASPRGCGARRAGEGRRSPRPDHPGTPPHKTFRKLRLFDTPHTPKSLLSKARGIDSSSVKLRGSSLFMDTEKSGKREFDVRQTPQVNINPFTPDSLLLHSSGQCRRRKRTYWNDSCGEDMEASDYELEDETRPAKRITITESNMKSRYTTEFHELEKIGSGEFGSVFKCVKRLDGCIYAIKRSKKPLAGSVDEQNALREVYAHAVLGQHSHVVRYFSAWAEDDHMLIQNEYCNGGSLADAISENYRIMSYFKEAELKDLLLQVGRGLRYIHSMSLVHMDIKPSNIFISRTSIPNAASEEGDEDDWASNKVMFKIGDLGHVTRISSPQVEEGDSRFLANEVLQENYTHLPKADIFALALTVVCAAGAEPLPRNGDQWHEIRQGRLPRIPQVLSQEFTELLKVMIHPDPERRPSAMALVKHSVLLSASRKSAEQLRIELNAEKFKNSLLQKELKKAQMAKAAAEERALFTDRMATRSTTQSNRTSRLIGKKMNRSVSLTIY
In short: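 Same format as the PKMYT1 assay: WEE1 at 15 nM final with 30 µM ATP, 60 min at 26° C, ADP-Glo luminescence detection, IC50 by dose-response fitting.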

| Structure (SMILES) | IC50 [1] [µM] | IC50 [2] [µM] | PKMYT1 vs. WEE1 selectivity [2] |
| --- | --- | --- | --- |
| COc1ccc(CC(=O)N2CCC(CNc3ncc(C(=O)Nc4c(C)ccc(O)c4C)s3)CC2)nc1 [BAA-100, N-(3-Hydroxy-2,6-dimethyl-phenyl)-2-[[1-[2-(5-methoxy-2-pyridyl)acetyl]-4-piperidyl]methylamino]thiazole-5-carboxamide] | 0.05 to 1 | > 11 | >X (100-<1000 fold) |
| Cc1ccc(O)c(C)c1NC(=O)c1cnc(Nc2ccn([C@@H]3CCN(C(=O)Cn4cccn4)C3)n2)s1 [BAA-103, N-(3-hydroxy-2,6-dimethyl-phenyl)-2-[1-[(3R)-1-(2-pyrazol-1-ylacetyl)pyrrolidin-3-yl]pyrazol-3-yllamino]thiazole-5-carboxamide] | 0.05 to 1 | > 11 | >X (100-<1000 fold) |
| Cc1ccc(O)c(C)c1NC(=O)c1cnc(Nc2ccn([C@@H]3CCN(C(=O)Cc4ccncc4)C3)n2)s1 [BAA-104, N-(3-hydroxy-2,6-dimethyl-phenyl)-2-[1-[(3R)-1-[2-(4-pyridyl)acetyl]pyrrolidin-3-yl]pyrazol-3-ylamino]thiazole-5-carboxamide] | 0.05 to 1 | > 11 | >X (100-<1000 fold) |
| Cc1ccc(O)c(C)c1NC(=O)c1cnc(Nc2ccn([C@@H]3CCN(C(=O)NCc4ccccc4)C3)n2)s1 [BAA-108, 2-[[1-[(3R)-1-(Benzylcarbamoyl)pyrrolidin-3-yl]pyrazol-3-yl]amino]-N-(3-hydroxy-2,6-dimethyl-phenyl)thiazole-5-carboxamide] | < 0.05 | > 11 | >Y (1000-5000 fold) |
| CCN(CC)C(=O)N1CC[C@@H](n2ccc(Nc3ncc(C(=O)Nc4c(C)ccc(O)c4C)s3)n2)C1 [BAA-112, 2-[[1-[(3R)-1-(Diethylcarbamoyl)pyrrolidin-3-yl]pyrazol-3-yl]amino]-N-(3-hydroxy-2,6-dimethyl-phenyl)thiazole-5-carboxamide] | 0.05 to 1 | > 11 | >Y (1000-5000 fold) |
| CCCN1CC[C@@H](n2ccc(Nc3ncc(C(=O)Nc4c(C)ccc(O)c4C)s3)n2)C1 [BAA-114, N-(3-Hydroxy-2,6-dimethyl-phenyl)-2-[[1-[(3R)-1-propylpyrrolidin-3-yl]pyrazol-3-yl]amino]thiazole-5-carboxamide] | 0.05 to 1 | > 11 | >X (100-<1000 fold) |
| Cc1ccc(O)c(C)c1NC(=O)c1cnc(Nc2ccn([C@@H]3CCN(CCc4ccccc4)C3)n2)s1 [BAA-115] | 0.05 to 1 | > 11 | >X (100-<1000 fold) |
| Cc1ccc(O)c(C)c1NC(=O)c1cnc(Nc2ccn([C@@H]3CCN(C)C3)n2)s1 [BAA-116, N-(3-Hydroxy-2,6-dimethyl-phenyl)-2-[[1-[(3R)-1-methylpyrrolidin-3-yl]pyrazol-3-yl]amino]thiazole-5-carboxamide] | 0.05 to 1 | 1 to 11 | W (10-<100 fold) |
| Cc1ccc(O)c(C)c1NC(=O)c1cnc(Nc2ccn(CC(=O)N(C)C)n2)s1 [BAA-117, 2-[[1-[2-(Dimethylamino)-2-oxo-ethyl]pyrazol-3-yl]amino]-N-(3-hydroxy-2,6-dimethyl-phenyl)thiazole-5-carboxamide] | < 0.05 | > 11 | Y (1000-5000 fold) |
| Cc1ccc(O)c(C)c1NC(=O)c1cnc(Nc2cc(C(=O)O)n(C)n2)s1 [BAA-118, 5-[[5-[(3-hydroxy-2,6-dimethyl-phenyl)carbamoyl]thiazol-2-yl]amino]-2-methyl-pyrazole-3-carboxylic acid] | < 0.05 | > 11 | X (100-<1000 fold) |
| Cc1ccc(O)c(C)c1NC(=O)c1cnc(Nc2cc(C(=O)N(C)C)n(C)n2)s1 [BAA-120, 2-[[5-(dimethylcarbamoyl)-1-methyl-pyrazol-3-yl]amino]-N-(3-hydroxy-2,6-dimethyl-phenyl)thiazole-5-carboxamide] | 0.05 to 1 | 1 to 11 | X (100-<1000 fold) |
| Cc1ccc(O)c(C)c1NC(=O)c1cnc(Nc2cc(C(=O)O)nn2C)s1 [BAA-121, 5-[[5-[(3-hydroxy-2,6-dimethyl-phenyl)carbamoyl]thiazol-2-yl]amino]-1-methyl-pyrazole-3-carboxylic acid] | 0.05 to 1 | > 11 | X (100-<1000 fold) |
| Cc1ccc(O)c(C)c1NC(=O)c1cnc(Nc2cc(C)n(C)n2)s1 [BAA-122, 2-[(1,5-dimethylpyrazol-3-yl)amino]-N-(3-hydroxy-2,6-dimethyl-phenyl)thiazole-5-carboxamide] | 0.05 to 1 | 1 to 11 | X (100-<1000 fold) |
| Cc1cn(CC(=O)O)nc1Nc1ncc(C(=O)Nc2c(C)ccc(O)c2C)s1 [BAA-125, 2-[3-[[5-[(3-hydroxy-2,6-dimethyl-phenyl)carbamoyl]thiazol-2-yl]amino]-4-methyl-pyrazol-1-yl]acetic acid] | < 0.05 | > 11 | Y (1000-5000 fold) |
| Cc1cc(Nc2ncc(C(=O)Nc3c(C)ccc(O)c3C)s2)n(C)n1 [BAA-127, 2-[(2,5-dimethylpyrazol-3-yl)amino]-N-(3-hydroxy-2,6-dimethyl-phenyl)thiazole-5-carboxamide] | < 0.05 | > 11 | Y (1000-5000 fold) |

Second part, the compound after the results:

| IC50 [1] [µM] | IC50 [2] [µM] | PKMYT1 vs. WEE1 selectivity [2] | Structure (SMILES) |
| --- | --- | --- | --- |
| 0.05 to 1 | > 11 | >X (100-<1000 fold) | Cc1ccc(O)c(C)c1NC(=O)c1cnc(Nc2ccn(CCCN3CCOCC3)n2)s1 [BAA-101] |
| 0.05 to 1 | > 11 | >Y (1000-5000 fold) | Cc1ccc(O)c(C)c1NC(=O)c1cnc(Nc2ccn([C@@H]3CCN(C(=O)Cc4cccnc4)C3)n2)s1 [BAA-102] |
| 0.05 to 1 | > 11 | >Y (1000-5000 fold) | Cc1ccc(O)c(C)c1NC(=O)c1cnc(Nc2ccn([C@@H]3CCN(C(=O)Cc4ccc(N(C)C)cc4)C3)n2)s1 [BAA-105, 2-[[1-[(3R)-1-[2-[4-(dimethylamino)phenyl]acetyl]pyrrolidin-3-yl]pyrazol-3-yl]amino]-N-(3-hydroxy-2,6-dimethyl-phenyl) thiazole-5-carboxamide] |
| < 0.05 | > 11 | >Y (1000-5000 fold) | Cc1ccc(O)c(C)c1NC(=O)c1cnc(Nc2ccn([C@@H]3CCN(C(=O)Cc4ccc(N)cc4)C3)n2)s1 [BAA-106, 2-[[1-[(3R)-1-[2-(4-Aminophenyl)acetyl]pyrrolidin-3-yl]pyrazol-3-yl]amino]-N-(3-hydroxy-2,6-dimethyl-phenyl)thiazole-5-carboxamide] |
| 0.05 to 1 | > 11 | >X (100-<1000 fold) | Cc1ccc(O)c(C)c1NC(=O)c1cnc(Nc2ccn([C@@H]3CCN(C(=O)CC4CCNCC4)C3)n2)s1 [BAA-107, N-(3-Hydroxy-2,6-dimethyl-phenyl)-2-[[1-[(3R)-1-[2-(4-piperidyl)acetyl]pyrrolidin-3-yl]pyrazol-3-yl]amino]thiazole-5-carboxamide] |
| 0.05 to 1 | > 11 | >X (100-<1000 fold) | CCNC(=O)N1CC[C@@H](n2ccc(Nc3ncc(C(=O)Nc4c(C)ccc(O)c4C)s3)n2)C1 [BAA-109, 2-[[1-[(3R)-1-(Ethylcarbamoyl)pyrrolidin-3-yl]pyrazol-3-yl]amino]-N-(3-hydroxy-2,6-dimethyl-phenyl)thiazole-5-carboxamide] |
| 0.05 to 1 | > 11 | >X (100-<1000 fold) | Cc1ccc(O)c(C)c1NC(=O)c1cnc(Nc2ccn([C@@H]3CCN(C(=O)NC4CC4)C3)n2)s1 [BAA-110, 2-[[1-[(3R)-1-(Cyclopropylcarbamoyl)pyrrolidin-3-yl]pyrazol-3-yl]amino]-N-(3-hydroxy-2.6-dimethyl-phenyl)thiazole-5-carboxamide] |
| 0.05 to 1 | > 11 | >Y (1000-5000 fold) | CCN(C)C(=O)N1CC[C@@H](n2ccc(Nc3ncc(C(=O)Nc4c(C)ccc(O)c4C)s3)n2)C1 [BAA-111, 2-[[1-[(3R)-1-[Ethyl(methyl)carbamoyl]pyrrolidin-3-yl]pyrazol-3-yl]amino]-N-(3-hydroxy-2,6-dimethyl-phenyl)thiazole-5-carboxamide] |
| 0.05 to 1 | > 11 | X (100-<1000 fold) | CNC(=O)c1cc(Nc2ncc(C(=O)Nc3c(C)ccc(O)c3C)s2)nn1C [BAA-119, N-(3-hydroxy-2,6-dimethyl-phenyl)-2-[[1-methyl-5-(methylcarbamoyl)pyrazol-3-yl]amino]thiazole-5-carboxamide] |
| < 0.05 | > 11 | X (100-<1000 fold) | Cc1ccc(O)c(C)c1NC(=O)c1cnc(Nc2cc(C)n(CC(=O)O)n2)s1 [BAA-124, 2-[3-[[5-[(3-hydroxy-2,6-dimethyl-phenyl)carbamoyl]thiazol-2-yl]amino]-5-methyl-pyrazol-1-yl]acetic acid] |
